These are literature values, as cited in US20110294894A1, “Pharmaceutical Composition for the Treatment of Solar Urticaria” (priority 2010, published 2011).

The subject of this data set is severe antihistamine-resistant solar urticaria. As to conditions: single case, Güzelbey et al., 2008.

Regarding omalizumab, the “effectiveness in solar urticaria” value was “effective”.
